tested on: Leishmania major; test: Antimicrobial activity against Leishmania major MHOM/IL/81/BNI promastigotes after 96 hrs by resazurin-based assay; type: functional, organism-based; conditions: not given

| Compound | IC50 |
| --- | --- |
| CCCC/C=C/C=C/c1nc2ccccc2n2cccc12 | 3.7 µM |
| CCCC/C=C/C=C/c1nc2cc(OC)ccc2n2cccc12 | 2.5 µM |
| CCCC/C=C/C=C/c1nc2ccc(OC)cc2n2cccc12 | 4.4 µM |
| CCCC/C=C/C=C/c1nc2cccc(OC)c2n2cccc12 | 5.8 µM |
| C/C=C/C=C/C=C/c1nc2ccccc2n2cccc12 | 1.2 µM |
| C/C=C/C=C/c1nc2ccccc2n2ccc(OCC)c12 | 1.5 µM |
| N=C(N)c1ccc(OCCCCCOc2ccc(C(=N)N)cc2)cc1 [PENTAMIDINE] | 4.3 µM |

tested on: not listed separately; test: Cytotoxicity against mouse J774A1 cells after 72 hrs by MTT assay; type: cell-based, J774.A1; conditions: not given

| Compound | CC50 at 72 h |
| --- | --- |
| CCCC/C=C/C=C/c1nc2ccccc2n2cccc12 | 8.8 µM |
| CCCC/C=C/C=C/c1nc2cc(OC)ccc2n2cccc12 | 8 µM |
| CCCC/C=C/C=C/c1nc2ccc(OC)cc2n2cccc12 | 10 µM |
| CCCC/C=C/C=C/c1nc2cccc(OC)c2n2cccc12 | 6.4 µM |
| C/C=C/C=C/C=C/c1nc2ccccc2n2cccc12 | 4.9 µM |
| C/C=C/C=C/c1nc2ccccc2n2ccc(OCC)c12 | 3.5 µM |
| N=C(N)c1ccc(OCCCCCOc2ccc(C(=N)N)cc2)cc1 [PENTAMIDINE] | 0.56 µM |

tested on: not listed separately; test: Selectivity index, ratio of CC50 for human HepG2 cells to IC50 for Leishmania donovani MHOM/IN/00/DEVI promastigotes; type: functional; conditions: not given

| Compound | Ratio CC50/IC50 |
| --- | --- |
| CCCC/C=C/C=C/c1nc2ccccc2n2cccc12 | 0.6 |
| CCCC/C=C/C=C/c1nc2cc(OC)ccc2n2cccc12 | 1.5 |
| CCCC/C=C/C=C/c1nc2ccc(OC)cc2n2cccc12 | 1.6 |
| CCCC/C=C/C=C/c1nc2cccc(OC)c2n2cccc12 | 1.4 |
| C/C=C/C=C/C=C/c1nc2ccccc2n2cccc12 | 1 |
| C/C=C/C=C/c1nc2ccccc2n2ccc(OCC)c12 | 1.1 |
| N=C(N)c1ccc(OCCCCCOc2ccc(C(=N)N)cc2)cc1 [PENTAMIDINE] | 0.4 |

tested on: not listed separately; test: Selectivity index, ratio of CC50 for mouse J774A1 cells to IC50 for Leishmania donovani MHOM/IN/00/DEVI promastigotes; type: functional, J774.A1; conditions: not given

| Compound | Ratio CC50/IC50 |
| --- | --- |
| CCCC/C=C/C=C/c1nc2ccccc2n2cccc12 | 0.6 |
| CCCC/C=C/C=C/c1nc2cc(OC)ccc2n2cccc12 | 0.7 |
| CCCC/C=C/C=C/c1nc2ccc(OC)cc2n2cccc12 | 0.7 |
| CCCC/C=C/C=C/c1nc2cccc(OC)c2n2cccc12 | 0.6 |
| C/C=C/C=C/C=C/c1nc2ccccc2n2cccc12 | 0.5 |
| C/C=C/C=C/c1nc2ccccc2n2ccc(OCC)c12 | 0.9 |
| N=C(N)c1ccc(OCCCCCOc2ccc(C(=N)N)cc2)cc1 [PENTAMIDINE] | 0.1 |

tested on: not listed separately; test: Selectivity index, ratio of CC50 for mouse J774A1 cells to IC50 for Leishmania major MHOM/IL/81/BNI promastigotes; type: functional, J774.A1; conditions: not given

| Compound | Ratio CC50/IC50 |
| --- | --- |
| CCCC/C=C/C=C/c1nc2ccccc2n2cccc12 | 2.4 |
| CCCC/C=C/C=C/c1nc2cc(OC)ccc2n2cccc12 | 3.2 |
| CCCC/C=C/C=C/c1nc2ccc(OC)cc2n2cccc12 | 2.3 |
| CCCC/C=C/C=C/c1nc2cccc(OC)c2n2cccc12 | 1.1 |
| C/C=C/C=C/C=C/c1nc2ccccc2n2cccc12 | 4.1 |
| C/C=C/C=C/c1nc2ccccc2n2ccc(OCC)c12 | 2.3 |
| N=C(N)c1ccc(OCCCCCOc2ccc(C(=N)N)cc2)cc1 [PENTAMIDINE] | 0.1 |

tested on: not listed separately; test: Selectivity index, ratio of CC50 for human HepG2 cells to IC50 for chloroquine and mefloquine-sensitive Plasmodium falciparum 3D7; type: functional; conditions: not given

| Compound | Ratio CC50/IC50 |
| --- | --- |
| CCCC/C=C/C=C/c1nc2ccccc2n2cccc12 | 1.3 |
| CCCC/C=C/C=C/c1nc2cc(OC)ccc2n2cccc12 | 2.1 |
| CCCC/C=C/C=C/c1nc2ccc(OC)cc2n2cccc12 | 2.2 |
| CCCC/C=C/C=C/c1nc2cccc(OC)c2n2cccc12 | 1.6 |
| C/C=C/C=C/C=C/c1nc2ccccc2n2cccc12 | 1 |
| C/C=C/C=C/c1nc2ccccc2n2ccc(OCC)c12 | 0.6 |

tested on: not listed separately; test: Selectivity index, ratio of CC50 for human HepG2 cells to IC50 for Trypanosoma brucei brucei Antat 1.1; type: functional; conditions: not given

| Compound | Ratio CC50/IC50 |
| --- | --- |
| CCCC/C=C/C=C/c1nc2cc(OC)ccc2n2cccc12 | 16.6 |
| CCCC/C=C/C=C/c1nc2ccc(OC)cc2n2cccc12 | 17.6 |
| C/C=C/C=C/C=C/c1nc2ccccc2n2cccc12 | 4.8 |
| N=C(N)c1ccc(OCCCCCOc2ccc(C(=N)N)cc2)cc1 [PENTAMIDINE] | 46 |

tested on: not listed separately; test: Cytotoxicity against human HepG2 cells after 72 hrs by MTT assay; type: cell-based; conditions: not given

| Compound | CC50 at 72 h |
| --- | --- |
| CCCC/C=C/C=C/c1nc2ccccc2n2cccc12 | 8.2 µM |
| CCCC/C=C/C=C/c1nc2cc(OC)ccc2n2cccc12 | 18.3 µM |
| CCCC/C=C/C=C/c1nc2ccc(OC)cc2n2cccc12 | 22.9 µM |
| CCCC/C=C/C=C/c1nc2cccc(OC)c2n2cccc12 | 15.8 µM |
| C/C=C/C=C/C=C/c1nc2ccccc2n2cccc12 | 10.6 µM |
| C/C=C/C=C/c1nc2ccccc2n2ccc(OCC)c12 | 4.5 µM |

tested on: Leishmania major; test: Ratio of pentamidine IC50 to compound IC50 for Leishmania major MHOM/IL/81/BNI promastigotes; type: functional; conditions: not given

| Compound | Ratio IC50 |
| --- | --- |
| C/C=C/C=C/C=C/c1nc2ccccc2n2cccc12 | 3.6 |

tested on: not listed separately; test: Selectivity index, ratio of CC50 for human HepG2 cells to IC50 for Leishmania major MHOM/IL/81/BNI promastigotes; type: functional; conditions: not given

| Compound | Ratio CC50/IC50 |
| --- | --- |
| CCCC/C=C/C=C/c1nc2ccccc2n2cccc12 | 2.2 |
| CCCC/C=C/C=C/c1nc2cc(OC)ccc2n2cccc12 | 7.3 |
| CCCC/C=C/C=C/c1nc2ccc(OC)cc2n2cccc12 | 5.2 |
| CCCC/C=C/C=C/c1nc2cccc(OC)c2n2cccc12 | 2.7 |
| C/C=C/C=C/C=C/c1nc2ccccc2n2cccc12 | 8.8 |
| C/C=C/C=C/c1nc2ccccc2n2ccc(OCC)c12 | 3 |
| N=C(N)c1ccc(OCCCCCOc2ccc(C(=N)N)cc2)cc1 [PENTAMIDINE] | 0.5 |

tested on: not listed separately; test: Selectivity index, ratio of CC50 for mouse J774A1 cells to IC50 for Leishmania mexicana MHOM/MX/95/NAN1 promastigotes; type: functional, J774.A1; conditions: not given

| Compound | Ratio CC50/IC50 |
| --- | --- |
| CCCC/C=C/C=C/c1nc2ccccc2n2cccc12 | 1.4 |
| CCCC/C=C/C=C/c1nc2cc(OC)ccc2n2cccc12 | 1.2 |
| CCCC/C=C/C=C/c1nc2ccc(OC)cc2n2cccc12 | 2.6 |
| CCCC/C=C/C=C/c1nc2cccc(OC)c2n2cccc12 | 1.4 |
| C/C=C/C=C/C=C/c1nc2ccccc2n2cccc12 | 1.1 |
| C/C=C/C=C/c1nc2ccccc2n2ccc(OCC)c12 | 0.4 |
| N=C(N)c1ccc(OCCCCCOc2ccc(C(=N)N)cc2)cc1 [PENTAMIDINE] | 0.2 |

tested on: not listed separately; test: Selectivity index, ratio of CC50 for human HepG2 cells to IC50 for chloroquine-resistant and mefloquine-sensitive Plasmodium falciparum W2; type: functional; conditions: not given

| Compound | Ratio CC50/IC50 |
| --- | --- |
| CCCC/C=C/C=C/c1nc2ccccc2n2cccc12 | 1.2 |
| CCCC/C=C/C=C/c1nc2cc(OC)ccc2n2cccc12 | 1.3 |
| CCCC/C=C/C=C/c1nc2ccc(OC)cc2n2cccc12 | 1.7 |
| CCCC/C=C/C=C/c1nc2cccc(OC)c2n2cccc12 | 0.8 |
| C/C=C/C=C/C=C/c1nc2ccccc2n2cccc12 | 1.2 |
| C/C=C/C=C/c1nc2ccccc2n2ccc(OCC)c12 | 0.5 |

tested on: not listed separately; test: Selectivity index, ratio of CC50 for human HepG2 cells to IC50 for Leishmania mexicana MHOM/MX/95/NAN1 promastigotes; type: functional; conditions: not given

| Compound | Ratio CC50/IC50 |
| --- | --- |
| CCCC/C=C/C=C/c1nc2ccccc2n2cccc12 | 1.3 |
| CCCC/C=C/C=C/c1nc2cc(OC)ccc2n2cccc12 | 2.8 |
| CCCC/C=C/C=C/c1nc2ccc(OC)cc2n2cccc12 | 6 |
| CCCC/C=C/C=C/c1nc2cccc(OC)c2n2cccc12 | 3.5 |
| C/C=C/C=C/C=C/c1nc2ccccc2n2cccc12 | 2.4 |
| C/C=C/C=C/c1nc2ccccc2n2ccc(OCC)c12 | 0.5 |
| N=C(N)c1ccc(OCCCCCOc2ccc(C(=N)N)cc2)cc1 [PENTAMIDINE] | 1 |

tested on: Plasmodium falciparum; test: Antimicrobial activity against chloroquine and mefloquine-sensitive Plasmodium falciparum 3D7 infected in human erythrocytes after 48 hrs by SYBR Green I assay; type: functional, organism-based; conditions: 3D7, 48 h

| Compound | IC50 |
| --- | --- |
| CCCC/C=C/C=C/c1nc2ccccc2n2cccc12 | 6.3 µM |
| CCCC/C=C/C=C/c1nc2cc(OC)ccc2n2cccc12 | 8.9 µM |
| CCCC/C=C/C=C/c1nc2ccc(OC)cc2n2cccc12 | 10.4 µM |
| CCCC/C=C/C=C/c1nc2cccc(OC)c2n2cccc12 | 9.8 µM |
| C/C=C/C=C/C=C/c1nc2ccccc2n2cccc12 | 10.1 µM |
| C/C=C/C=C/c1nc2ccccc2n2ccc(OCC)c12 | 7.7 µM |

tested on: Leishmania mexicana; test: Antimicrobial activity against Leishmania mexicana MHOM/MX/95/NAN1 promastigotes after 96 hrs by resazurin-based assay; type: functional, organism-based; conditions: MHOM/MX/95/NAN1, 96 h

| Compound | IC50 |
| --- | --- |
| CCCC/C=C/C=C/c1nc2ccccc2n2cccc12 | 6.1 µM |
| CCCC/C=C/C=C/c1nc2cc(OC)ccc2n2cccc12 | 6.6 µM |
| CCCC/C=C/C=C/c1nc2ccc(OC)cc2n2cccc12 | 3.8 µM |
| CCCC/C=C/C=C/c1nc2cccc(OC)c2n2cccc12 | 4.5 µM |
| C/C=C/C=C/C=C/c1nc2ccccc2n2cccc12 | 4.4 µM |
| C/C=C/C=C/c1nc2ccccc2n2ccc(OCC)c12 | 9.6 µM |
| N=C(N)c1ccc(OCCCCCOc2ccc(C(=N)N)cc2)cc1 [PENTAMIDINE] | 2.4 µM |

tested on: Plasmodium falciparum; test: Antimicrobial activity against chloroquine-resistant and mefloquine-sensitive Plasmodium falciparum W2 infected in human erythrocytes after 48 hrs by SYBR Green I assay; type: functional, organism-based; conditions: W2, 48 h

| Compound | IC50 |
| --- | --- |
| CCCC/C=C/C=C/c1nc2ccccc2n2cccc12 | 6.7 µM |
| CCCC/C=C/C=C/c1nc2cc(OC)ccc2n2cccc12 | 13.8 µM |
| CCCC/C=C/C=C/c1nc2ccc(OC)cc2n2cccc12 | 13.3 µM |
| CCCC/C=C/C=C/c1nc2cccc(OC)c2n2cccc12 | 19.8 µM |
| C/C=C/C=C/C=C/c1nc2ccccc2n2cccc12 | 8.8 µM |
| C/C=C/C=C/c1nc2ccccc2n2ccc(OCC)c12 | 9.6 µM |
| O[C@@H](c1cc(C(F)(F)F)nc2c(C(F)(F)F)cccc12)[C@H]1CCCCN1 [(S,R)-MEFLOQUINE] | 0.015 µM |

tested on: Leishmania donovani; test: Antimicrobial activity against Leishmania donovani MHOM/IN/00/DEVI promastigotes after 72 hrs by MTT assay; type: functional, organism-based; conditions: not given

| Compound | IC50 |
| --- | --- |
| CCCC/C=C/C=C/c1nc2ccccc2n2cccc12 | 13.7 µM |
| CCCC/C=C/C=C/c1nc2cc(OC)ccc2n2cccc12 | 12.1 µM |
| CCCC/C=C/C=C/c1nc2ccc(OC)cc2n2cccc12 | 14.7 µM |
| CCCC/C=C/C=C/c1nc2cccc(OC)c2n2cccc12 | 11.6 µM |
| C/C=C/C=C/C=C/c1nc2ccccc2n2cccc12 | 10.5 µM |
| C/C=C/C=C/c1nc2ccccc2n2ccc(OCC)c12 | 4 µM |
| N=C(N)c1ccc(OCCCCCOc2ccc(C(=N)N)cc2)cc1 [PENTAMIDINE] | 5.5 µM |

tested on: Trypanosoma brucei brucei; test: Antimicrobial activity against Trypanosoma brucei brucei Antat 1.1 after 24 hrs by haemocytometric analysis; type: functional, organism-based; conditions: Antat 1.1, 24 h

| Compound | IC50 |
| --- | --- |
| CCCC/C=C/C=C/c1nc2cc(OC)ccc2n2cccc12 | 1.1 µM |
| CCCC/C=C/C=C/c1nc2ccc(OC)cc2n2cccc12 | 1.3 µM |
| C/C=C/C=C/C=C/c1nc2ccccc2n2cccc12 | 2.2 µM |
| N=C(N)c1ccc(OCCCCCOc2ccc(C(=N)N)cc2)cc1 [PENTAMIDINE] | 0.05 µM |
